Measured values published in patent US20130090333A1, “BENZOXAZINE DERIVATIVES AS CRAC MODULATORS” (Hoffmann-La Roche Inc., priority 2011, published 2013).
Like-named read-outs stand apart in the source and are kept apart here.

Key:
[1] = tested on: IL-2 production in Jurkat cell (ATCC); test: Jurkat IL-2 Production Assay; assay type: cell-based; details: Jurkat cells, 18-20 h incubation, serum/stimulant variant (1% FBS/PHA or 30% FBS/PMA+ionomycin) not given
Description: Jurkat IL-2 Production Assay Cell: Jurkat cell (ATCC) was grown in RPMI 1640 with 10% FBS and 1% penicillin/streptomycin. The cell density was kept at 1.2˜1.8×10^6/mL in culture flask before seeding into culture plate, and the cell density in the plate was 0.5×10^6/2004/well. Culture Media: RPMI 1640 with 1% FBS or 30% FBS for high serum assay. Test Compound: Serial dilution was done in 100% DMSO, and intermediate dilution was done with RPMI 1640 medium with 1% FBS. The DMSO final concentration in culture well was 0.25%. Stimulant: PHA (Sigma#L9017-10MG) was used for the assay with 1% FBS in culture medium, and added after 10 minutes exposure of cell to compound/DMSO. The PHA final concentration in culture well was 5 μg/mL. PMA (Sigma# P-8139 5MG)/Ionomycin (Sigma# I0634-5MG) was used for the assay with 30% FBS in culture medium, and added at same time point as the 1% FBS culture assay. The final concentration of PMA was 50 ng/mL, and Ionomycin final concentration was 500 ng/mL. Incubation: At 37° C. with 5% CO2 and 95% humidity for 18 h˜20 h. IC50: IC50 was calculated with the data analysis software XLfit4, General Pharmacology model 251.

[2] = tested on: T cell IL-2 production in human whole blood; test: Human Whole Blood Assay (inhibition of T cell IL-2 production); assay type: cell-based; details: 10 μM Thapsigargin overnight, plasma IL-2 by AlphaLISA, read-out: HWB
Description: Inhibition of T cell IL-2 production CRAC compounds were tested in human whole blood from normal donors. 200 μl of human whole blood was aliquoted into each well of a round bottom 96 well plate. Concentration-response curves were generated for test compounds and CsA (as controls) by performing serial dilutions of the compounds and incubating each concentration in a single well for 30 min (experiment was performed in triplicate). Following incubation, the blood was stimulated with 10 μM Thapsigargin (SIGMA) overnight at 37° C. IL-2 concentrations in the plasma were determined by AlphaLISA IL-2 assay (Perkin Elmer). Data analysis was performed using GraphPad PRISMS.

IC50 ([1]; Homo sapiens) [nM] | IC50 ([2]; T-cell) [nM] | Molecule | also measured
110 |  | CCn1nc(-c2cnccn2)cc1-c1ccc2c(c1)OCC(c1c(F)cccc1F)N2 (centres unmarked) [Example 8, 3-(2,6-Difluoro-phenyl)-7-(2-ethyl-5-pyrazin-2-yl-2H-pyrazol-3-yl)-3,4-dihydro-2H-benzo[1,4]oxazine] | 
350 |  | Cn1nc(C(F)(F)F)cc1-c1ccc2c(c1)OCC(c1ccccc1Cl)N2 (centres unmarked) [Example 34, 3-(2-chlorophenyl)-7-(1-methyl-3-(trifluoromethyl)-1H-pyrazol-5-yl)-3,4-dihydro-2H-benzo[b][1,4]oxazine] | 
90 |  | Cc1sc(-c2cccnc2)nc1-c1ccc2c(c1)OCC(c1ccccc1Cl)N2 (centres unmarked) [Example 36, 3-(2-chlorophenyl)-7-(5-methyl-2-(pyridin-3-yl)thiazol-4-yl)-3,4-dihydro-2H-benzo[b][1,4]oxazine] | 
310 |  | Cn1nc(-c2cccnc2)nc1-c1ccc2c(c1)OCC(c1c(F)cccc1F)N2 (centres unmarked) [Example 9, 3-(2,6-Difluoro-phenyl)-7-(2-methyl-5-pyridin-3-yl-2H-[1,2,4]triazol-3-yl)-3,4-dihydro-2H-benzo[1,4]oxazine] | 
 | 6150 | CCc1cc(-c2nc(-c3ccc4c(c3)OCC(c3c(F)cccc3F)N4)c(CC)s2)ccn1 (centres unmarked) [Example 18, 3-(2,6-Difluoro-phenyl)-7-[5-ethyl-2-(2-ethyl-pyridin-4-yl)-thiazol-4-yl]-3,4-dihydro-2H-benzo[1,4]oxazine] | 
90 |  | CCS(=O)(=O)c1cc(C)c(-c2ccc3c(c2)OCC(c2c(F)cccc2F)N3)cn1 (centres unmarked) [Example 22, 3-(2,6-difluorophenyl)-7-(6-(ethylsulfonyl)-4-methylpyridin-3-yl)-3,4-dihydro-2H-benzo[b][1,4]oxazine] | 
100 | 3220 | Cc1ccc(C(F)(F)F)cc1-c1ccc2c(c1)OCC(c1c(F)cccc1F)N2 (centres unmarked) [Example 4, 3-(2,6-difluoro-phenyl)-7-(2-methyl-5-trifluoromethyl-phenyl)-3,4-dihydro-2H-benzo[1,4]oxazine] | 
730 |  | COc1cc(C)c(-c2ccc3c(c2)OCC(c2ccccc2Cl)N3)cn1 (centres unmarked) [Example 35, 3-(2-chlorophenyl)-7-(6-methoxy-4-methylpyridin-3-yl)-3,4-dihydro-2H-benzo[b][1,4]oxazine] | 
380 |  | COc1cc(C)c(-c2ccc3c(c2)OCC(c2c(F)cccc2Cl)N3)cn1 (centres unmarked) [Example 33, 3-(2-Chloro-6-fluoro-phenyl)-7-(6-methoxy-4-methyl-pyridin-3-yl)-3,4-dihydro-2H-benzo[1,4]oxazine] | 
280 |  | COc1cc(C)c(-c2ccc3c(c2)OCC(c2c(F)cccc2F)N3)cn1 (centres unmarked) [Example 21, 3-(2,6-Difluoro-phenyl)-7-(6-methoxy-4-methyl-pyridin-3-yl)-3,4-dihydro-2H-benzo[1,4]oxazine] | 
 |  | (R)-3-(2,6-Difluoro-phenyl)-7-(2-methyl-4-trifluoromethyl-phenyl)-3,4-dihydro-2H-benzo[1,4]oxazine or (S)-3-(2,6-Difluoro-phenyl)-7-(2-methyl-4-trifluoromethyl-phenyl)-3,4-dihydro-2H-benzo[1,4]oxazine [Example 2] | IC50 [2]: 3160 nM; IC50 [1]: 80 nM
100 | 910 | Cn1nc(C(F)(F)F)cc1-c1ccc2c(c1)OCC(c1c(F)cccc1F)N2 (centres unmarked) [Example 5, 3-(2,6-Difluoro-phenyl)-7-(2-methyl-5-trifluoromethyl-2H-pyrazol-3-yl)-3,4-dihydro-2H-benzo[1,4]oxazine] | 
160 | 5330 | Cc1cc(C(F)(F)F)ccc1-c1ccc2c(c1)OCC(c1c(F)cccc1Cl)N2 (centres unmarked) [Example 29, 3-(2-Chloro-6-fluoro-phenyl)-7-(2-methyl-4-trifluoromethyl-phenyl)-3,4-dihydro-2H-benzo[1,4]oxazine] | 
670 |  | Cc1cc(-c2nnn(C)n2)ncc1-c1ccc2c(c1)OCC(c1c(F)cccc1F)N2 (centres unmarked) [Example 27, 3-(2,6-difluorophenyl)-7-(4-methyl-6-(2-methyl-2H-tetrazol-5-yl)pyridin-3-yl)-3,4-dihydro-2H-benzo[b][1,4]oxazine] | 
120 |  | Cc1cc(C(F)(F)F)ccc1-c1ccc2c(c1)OCC(c1c(F)cccc1F)N2 (centres unmarked) [Example 1, 3-(2,6-Difluoro-phenyl)-7-(2-methyl-4-trifluoromethyl-phenyl)-3,4-dihydro-2H-benzo[1,4]oxazine] | 
210 |  | Cc1ncc(-c2cc(C)c(-c3ccc4c(c3)OCC(c3c(F)cccc3F)N4)cn2)s1 (centres unmarked) [Example 26, 3-(2,6-difluorophenyl)-7-(4-methyl-6-(2-methylthiazol-5-yl)pyridin-3-yl)-3,4-dihydro-2H-benzo[b][1,4]oxazine] | 
 |  | (S)-3-(2,6-Difluoro-phenyl)-7-(2-methyl-4-trifluoromethyl-phenyl)-3,4-dihydro-2H-benzo[1,4]oxazine or (R)-3-(2,6-Difluoro-phenyl)-7-(2-methyl-4-trifluoromethyl-phenyl)-3,4-dihydro-2H-benzo[1,4]oxazine [Example 3] | IC50 [1]: 350 nM
140 | 3550 | Cc1sc(-c2ccccn2)nc1-c1ccc2c(c1)OCC(c1c(F)cccc1Cl)N2 (centres unmarked) [Example 31, 3-(2-Chloro-6-fluoro-phenyl)-7-(5-methyl-2-pyridin-2-yl-thiazol-4-yl)-3,4-dihydro-2H-benzo[1,4]oxazine] | 
 | 1940 | CCc1sc(-c2ccccn2)nc1-c1ccc2c(c1)OCC(c1c(F)cccc1F)N2 (centres unmarked) [Example 13, 3-(2,6-Difluoro-phenyl)-7-(5-ethyl-2-pyridin-2-yl-thiazol-4-yl)-3,4-dihydro-2H-benzo[1,4]oxazine] | 
320 |  | Cc1cc(Cl)ncc1-c1ccc2c(c1)OCC(c1c(F)cccc1F)N2 (centres unmarked) [Example 23, 7-(6-Chloro-4-methyl-pyridin-3-yl)-3-(2,6-difluoro-phenyl)-3,4-dihydro-2H-benzo[1,4]oxazine] | 
50 | 580 | Cc1sc(-c2cccnc2)nc1-c1ccc2c(c1)OCC(c1c(F)cccc1Cl)N2 (centres unmarked) [Example 32, 3-(2-Chloro-6-fluoro-phenyl)-7-(5-methyl-2-pyridin-3-yl-thiazol-4-yl)-3,4-dihydro-2H-benzo[1,4]oxazine] | 
60 |  | Cc1sc(-c2cnccn2)nc1-c1ccc2c(c1)OCC(c1c(F)cccc1F)N2 (centres unmarked) [Example 15, 3-(2,6-difluorophenyl)-7-(5-methyl-2-(pyrazin-2-yl)thiazol-4-yl)-3,4-dihydro-2H-benzo[b][1,4]oxazine] | 
70 |  | CCc1sc(-c2cnccn2)nc1-c1ccc2c(c1)OCC(c1ccccc1Cl)N2 (centres unmarked) [Example 37, 3-(2-chlorophenyl)-7-(5-ethyl-2-(pyrazin-2-yl)thiazol-4-yl)-3,4-dihydro-2H-benzo[b][1,4]oxazine] | 
120 | 1820 | Cc1sc(-c2ccccn2)nc1-c1ccc2c(c1)OCC(c1c(F)cccc1F)N2 (centres unmarked) [Example 11, 3-(2,6-Difluoro-phenyl)-7-(5-methyl-2-pyridin-2-yl-thiazol-4-yl)-3,4-dihydro-2H-benzo[1,4]oxazine] | 
90 | 510 | CCn1nc(-c2cccnc2)nc1-c1ccc2c(c1)OCC(c1c(F)cccc1F)N2 (centres unmarked) [Example 10, 3-(2,6-Difluoro-phenyl)-7-(2-ethyl-5-pyridin-3-yl-2H-[1,2,4]triazol-3-yl)-3,4-dihydro-2H-benzo[1,4]oxazine] | 
660 |  | Cc1cc(-c2cnc(N)nc2)ncc1-c1ccc2c(c1)OCC(c1c(F)cccc1F)N2 (centres unmarked) [Example 25, 5-(5-(3-(2,6-difluorophenyl)-3,4-dihydro-2H-benzo[b][1,4]oxazin-7-yl)-4-methylpyridin-2-yl)pyrimidin-2-amine] | 
 | 650 | CCc1sc(-c2ncco2)nc1-c1ccc2c(c1)OCC(c1c(F)cccc1F)N2 (centres unmarked) [Example 19, 3-(2,6-Difluoro-phenyl)-7-(5-ethyl-2-oxazol-2-yl-thiazol-4-yl)-3,4-dihydro-2H-benzo[1,4]oxazine] | 
340 |  | Cc1cc(-c2ncco2)ncc1-c1ccc2c(c1)OCC(c1c(F)cccc1F)N2 (centres unmarked) [Example 24, 3-(2,6-Difluoro-phenyl)-7-(4-methyl-6-oxazol-2-yl-pyridin-3-yl)-3,4-dihydro-2H-benzo[1,4]oxazine] | 
 | 1000 | Cc1ccc(-c2ncco2)cc1-c1ccc2c(c1)OCC(c1c(F)cccc1F)N2 (centres unmarked) [Example 28, 3-(2,6-Difluoro-phenyl)-7-(2-methyl-5-oxazol-2-yl-phenyl)-3,4-dihydro-2H-benzo[1,4]oxazine] | 
220 |  | Cc1ccc(C(F)(F)F)cc1-c1ccc2c(c1)OCC(c1c(F)cccc1Cl)N2 (centres unmarked) [Example 30, 3-(2-Chloro-6-fluoro-phenyl)-7-(2-methyl-5-trifluoromethyl-phenyl)-3,4-dihydro-2H-benzo[1,4]oxazine] | 
